The source of these data is patent US8410106B2, “Hydrazine-substituted anthranilic acid derivatives” (Bayer Cropscience AG, priority 2010, dated 2013).

Series [1] can be described thus: logP determination by HPLC on reversed-phase columns (C 18), EEC Directive 79/831 Annex V.A8. It is filed as physicochemical.
The test system of series [2] is caterpillars of the army worm (Spodoptera frugiperda). Kind of series: Spodoptera frugiperda test (SPODFR spray treatment). Conditions: foliar, 168 h, read-out: activity (caterpillars killed). It is filed as in vivo.
The subject of series [3] is greenhouse red spidermite (Tetranychus urticae). Kind of series: Tetranychus test, OP-resistant (TETRUR spray treatment). Conditions: after 6 days, bean leaf discs. The class given is in vivo. The procedure: (§1) After 6 days the activity is determined, in %.
The subject of series [4] is larvae of the mustard beetle (Phaedon cochleariae). The series can be described thus: Phaedon test (PHAECO spray treatment). Conditions: in Brassica rapa, foliar, 168 h, read-out: activity (beetle larvae killed).
Series [5] relates to green peach aphid (Myzus persicae). Kind of series: Myzus test (MYZUPE spray treatment). It is filed as in vivo. The settings on record: foliar, 144 h, read-out: activity (aphids killed). The procedure: as §1
Setting [6] is: HPLC, reversed-phase C 18, table value without method mark, read-out: logP.
[7] abbreviates: application rate 100 g/ha, after 7 days, maize leaf discs, spray.
Where [8] appears, read: application rate 100 g/ha, after 6 days, Chinese cabbage leaf discs, spray.

Where two headings read alike, the source gives them in different places.

Consider `COC(=O)N(C)NC(=O)c1cc(Cl)cc(C)c1NC(=O)c1cc(Cn2nnc(C(F)(F)F)n2)nn1-c1ncccc1C#N` [Example 59], for which, in series [1] (setting [6]), the chromatographic logP came to 2.73. The pest or weed control at 100 g/ha in series [2] (setting [7]) and in series [4] was 100% each time. In series [3] (application rate 100 g/ha), the “activity (mites killed)” value was found to be 100%.

`COC(=O)N(C)NC(=O)c1cc(Cl)cc(Cl)c1NC(=O)c1cc(Cn2nc(OC)n(C)c2=O)nn1-c1ncccc1Cl` [Example 67] registered a chromatographic logP in series [1] of 1.9. Also, the “activity (mites killed)” value in series [3] (application rate 500 g/ha) was found to be 100%.

Turning to `COC(=O)N(C)NC(=O)c1cc(Cl)cc(C)c1NC(=O)c1cc(Cn2cnc(C(F)(F)F)c2C(F)(F)F)nn1-c1ncccc1Cl` [Example 48], the chromatographic logP in series [1] (setting [6]) came out at 3.08. The pest or weed control at 100 g/ha in series [5] (setting [8]), in series [2] (setting [7]) and in series [4] was 100% each time.

On to `COC(=O)N(C)NC(=O)c1cc(I)cc(C)c1NC(=O)c1cc(Cn2cc(C(F)(F)F)nn2)nn1-c1ncccc1Cl` [Example 35], for which, in series [1], the chromatographic logP is 3.14. Also, the pest or weed control at 100 g/ha in series [5] (in Brassica rapa), in series [2] (in Zea mays) and in series [4] was 100% each time.

As to `COC(=O)N(C)N(C)C(=O)c1cc(C#N)cc(C)c1NC(=O)c1cc(Cn2nnc(C(F)(F)F)n2)nn1-c1ncccc1Cl` [Example 8], the chromatographic logP in series [1] worked out at 2.97. Also, the pest or weed control at 100 g/ha in series [5] (in Brassica rapa), in series [2] (in Zea mays) and in series [4] was 100% in each case.

In turn, `COC(=O)N(C)NC(=O)c1cc(Cl)cc(Cl)c1NC(=O)c1cc(Cn2ncc(C(F)(F)F)n2)nn1-c1ncccc1Cl` [Example 31] registered a chromatographic logP in series [1] of 2.94. Besides, the pest or weed control at 100 g/ha in series [5] (in Brassica rapa), in series [2] (in Zea mays) and in series [4] was 100% each time.

In the case of `COC(=O)N(C)NC(=O)c1cc(Cl)cc(Cl)c1NC(=O)c1cc(Cn2cnc(C(F)(F)F)c2C(F)(F)F)nn1-c1ncccc1Cl` [Example 36], in series [1] (setting [6]), the chromatographic logP amounted to 3.1. Besides, the pest or weed control at 100 g/ha in series [5] (setting [8]), in series [2] (setting [7]) and in series [4] was 100% throughout.

As for `COC(=O)N(C)NC(=O)c1cc(I)cc(C)c1NC(=O)c1cc(Cn2nnc(C(F)(F)C(F)(F)C(F)(F)F)n2)nn1-c1ncccc1Cl` [Example 81], the chromatographic logP in series [1] (setting [6]) is 3.85. Besides, the values for the pest or weed control at 100 g/ha in series [5] (in Brassica rapa), in series [2] (in Zea mays) and in series [4] were 80%, 100% and 100%, respectively.

With `COC(=O)N(C)NC(=O)c1cc(Cl)cc(Cl)c1NC(=O)c1cc(Cn2nc(C(F)F)cc2C(F)F)nn1-c1ncccc1Cl` [Example 42], in series [1], the chromatographic logP came out at 2.9. For the same compound, the pest or weed control at 100 g/ha in series [5] (in Brassica rapa), in series [2] (in Zea mays) and in series [4] was 100% each time.

On to `COC(=O)N(C)NC(=O)c1cc(C#N)cc(C)c1NC(=O)c1cc(Cn2nnc(C(F)(F)F)n2)nn1-c1ncccc1Cl` [Example 6], for which, in series [1], the chromatographic logP came to 2.63. The pest or weed control at 100 g/ha in series [5] (in Brassica rapa), in series [2] (in Zea mays) and in series [4] was 100% in each case.

Take `COC(=O)N(C)NC(=O)c1cc(Cl)cc(C)c1NC(=O)c1cc(Cn2nnc(C(F)(F)C(F)(F)C(F)(F)F)n2)nn1-c1ncccc1Cl` [Example 1, methyl N′-(5-chloro-2-{[2-(3-chloropyridin-2-yl)-5-(5-heptalluoropropyltetrazol-2-ylmethyl)-2H-pyrazole-3-carbonyl]amino}-3-methylbenzoyl)-N-methylhydrazinecarboxylate]: the chromatographic logP in series [1] (HPLC, reversed-phase C 18, value in text of the Preparation Examples, read-out: logP) is 3.66. The pest or weed control at 100 g/ha in series [5] (in Brassica rapa), in series [2] (in Zea mays) and in series [4] was 100% in each case.

In turn, `COC(=O)N(C)NC(=O)c1cc(Cl)cc(C)c1NC(=O)c1cc(Cn2cc(-c3ccc(Cl)cc3)nn2)nn1-c1ncccc1Cl` [Example 23] displayed a chromatographic logP in series [1] of 3.14. In addition, the pest or weed control at 100 g/ha in series [5] (in Brassica rapa), in series [2] (in Zea mays) and in series [4] was 100% throughout.

`COC(=O)NNC(=O)c1cc(C#N)cc(C)c1NC(=O)c1cc(Cn2nnc(C(F)(F)F)n2)nn1-c1ncccc1Cl` [Example 4] displayed a chromatographic logP in series [1] of 2.41. In addition, the pest or weed control at 100 g/ha in series [5] (in Brassica rapa), in series [2] (in Zea mays) and in series [4] was 100% each time.

Turning to `COC(=O)N(C)N(C)C(=O)c1cc(Cl)cc(C)c1NC(=O)c1cc(Cn2cc(-c3ccc(Cl)cc3)nn2)nn1-c1ncccc1Cl` [Example 41], the chromatographic logP in series [1] (setting [6]) was 3.49. For the same compound, the pest or weed control at 100 g/ha in series [5] (setting [8]), in series [2] (setting [7]) and in series [4] was 100% each time.

In series [1], `COC(=O)N(C)NC(=O)c1cc(C#N)cc(C)c1NC(=O)c1cc(Cn2nnc(C(F)F)n2)nn1-c1ncccc1Cl` [Example 45] came in with a chromatographic logP of 2.15. The pest or weed control at 100 g/ha in series [5] (in Brassica rapa), in series [2] (in Zea mays) and in series [4] was 100% throughout.

Regarding `COC(=O)N(C)N(C)C(=O)c1cc(C#N)cc(C)c1NC(=O)c1cc(Cn2nnc(C(F)(F)C(F)(F)C(F)(F)F)n2)nn1-c1ncccc1Cl` [Example 82], the chromatographic logP in series [1] (setting [6]) was 3.67. Besides, the pest or weed control at 100 g/ha in series [5] (in Brassica rapa), in series [2] (in Zea mays) and in series [4] was 100% in each case.

As to `COC(=O)N(C)NC(=O)c1cc(Cl)cc(C)c1NC(=O)c1cc(Cn2nc(C(F)(F)C(F)(F)C(F)(F)F)cc2C)nn1-c1ncccc1Cl` [Example 68], the chromatographic logP in series [1] (setting [6]) worked out at 3.82. The pest or weed control at 100 g/ha in series [5] (in Brassica rapa), in series [2] (in Zea mays) and in series [4] was 100% throughout.

Compound `COC(=O)N(C)NC(=O)c1cc(Cl)cc(Cl)c1NC(=O)c1cc(Cn2cc(C(F)(F)F)nn2)nn1-c1ncccc1Cl` [Example 34] displayed a chromatographic logP in series [1] of 2.61. Further, the pest or weed control at 100 g/ha in series [5] (in Brassica rapa), in series [2] (in Zea mays) and in series [4] was 100% in each case.

`COC(=O)N(C)NC(=O)c1cc(F)cc(C)c1NC(=O)c1cc(Cn2nnc(C(F)F)n2)nn1-c1ncccc1Cl` [Example 75] yielded a chromatographic logP in series [1] of 2.19. The pest or weed control at 100 g/ha in series [5] (in Brassica rapa), in series [2] (in Zea mays) and in series [4] was 100% each time.

In the case of `COC(=O)N(C)NC(=O)c1cc(C#N)cc(C)c1NC(=O)c1cc(Cn2nnc(C(F)(F)C(F)(F)F)n2)nn1-c1ncccc1Cl` [Example 73], in series [1] (setting [6]), the chromatographic logP worked out at 2.97. Besides, the pest or weed control at 100 g/ha in series [5] (setting [8]), in series [2] (setting [7]) and in series [4] was 100% throughout.

As for `COC(=O)N(C)NC(=O)c1cc(I)cc(C)c1NC(=O)c1cc(Cn2ncc(C(F)(F)F)n2)nn1-c1ncccc1Cl` [Example 32], in series [1], the chromatographic logP came out at 2.81. The pest or weed control at 100 g/ha in series [5] (in Brassica rapa) was 90%; in series [2] (in Zea mays), 100%; in series [4] it was 100%.

`COC(=O)N(C)NC(=O)c1cc(Cl)cc(Cl)c1NC(=O)c1cc(Cn2nnc(C(F)(F)C(F)(F)F)n2)nn1-c1ncccc1Cl` [Example 25] yielded a chromatographic logP in series [1] of 3.32. Also, the pest or weed control at 100 g/ha in series [5] (in Brassica rapa), in series [2] (in Zea mays) and in series [4] was 100% each time.

On to `COC(=O)NNC(=O)c1cc(Cl)cc(C)c1NC(=O)c1cc(Cn2cc(C3CC3)nn2)nn1-c1ncccc1Cl` [Example 38], for which, in series [1], the chromatographic logP is 2.02. The pest or weed control at 100 g/ha in series [5] (in Brassica rapa), in series [2] (in Zea mays) and in series [4] was 100% in each case.
